PMC5715595 (British Journal of Pharmacology, 2017)
Like-named read-outs stand apart in the source and are kept apart here.

Legend:
in vivo [1] = experiment: in vivo; design: species or system rabbit; conditions: female, rabbit, in vivo, iv, read-out: free drug concentration
Procedure: (§1) All the other experimental groups were 100% female.
(§2) The anaesthetized methoxamine‐sensitized rabbit model of TdP is frequently used to study torsadogenic potential of drugs (Carlsson et al., 1990). Briefly, female animals were pre‐sensitized with i.v. infusion of methoxamine, an α1‐adrenoceptor agonist, delivered at 15 μg·kg^−1·min^−1 (6 mL·h^−1) over 70 min.

[2] = test system: methoxamine‐sensitized rabbits; experiment: in vivo; design: species or system rabbit; conditions: pitolisant alone, 50 and 150 μg·kg^−1·min^−1 over 1 h
Procedure: as §1, §2

anaesthetized rabbits = test system: anaesthetized rabbits
Procedure: All the other experimental groups were 100% female. Animals were anaesthetized with sodium pentobarbital (45–60 mg·kg^−1 i.v.), maintained on a heated pad and mechanically ventilated with room air. […] A fluid‐filled catheter was inserted into the carotid artery to measure systemic arterial blood pressure and for blood sampling. A venous catheter was implanted into the jugular vein for infusion of drugs. Standard surface ECG leads I, II and III were monitored continuously to measure ECG intervals and the occurrence of ventricular tachyarrhythmia. Measurements of arterial blood pressures were calculated over 30 s duration at baseline and every 5 min. […] Then, for all determinations, the means of 10–30 consecutive sinus beats were automatically calculated at each time point (i.e. at the end of the stabilization period and then every 5 until 60 min after starting drug infusion) or until the occurrence of premature ventricular beats. Parameters recorded were systolic, diastolic and mean arterial blood pressure (mmHg), heart rate (beats·min^‐1 calculated from RR interval) as well as PR, QRS and QT/QTU intervals (ms), amplitudes of T‐wave and U‐wave (mV) and rhythm disturbances retrieved from ECG signals. […] Arrhythmia were scored according to the following scale: 0 being no arrhythmia, 1 being premature beats, 2 being auriculo‐ventricular blocks, 3 being ventricular tachycardia and 4 being TdP; and scores correspond to the average of maximal life‐threatening arrhythmias recorded during the experiment. […] Haemodynamic and ECG recordings were monitored continuously over 60 min following the start of infusion.

[3] = test system: human stem cell‐derived cardiomyocytes; type: cell-based
Source text: . Human cardiomyocytes (Cor.4U®, Axiogenesis AG, Cologne, Germany) were derived from human iPSC. Preparations were stimulated at 0.5 Hz with 4 ms rectangular pulses from 1 to 1.5 times depolarization threshold to −60 mV. We studied RMP, APA, action potential durations measured at 20 and 90% repolarization (APD20 and APD90) and APD90‐APD20. […]

in vitro = conditions: human
[4] = test system: conscious telemetered dogs; experiment: in vivo; conditions: dog
Procedure: (§3) Telemetry implantation was performed as previously described (Lacroix et al., 2003). Approximately 2 weeks later, blood pressure, heart rate and ECG intervals were recorded per blocks of 30 s at the time points of interest for 30 min before and for 24 h after administration of test compound. ECG traces were inspected visually for any rhythm or conduction abnormalities (such as arrhythmia, tachyarrhythmia, atrioventricular conduction blocks), and values of PR, QRS and QT intervals were obtained by a validated manual reading procedure (mean calculated from three non‐consecutive sinus beats). The QT interval measured was corrected for heart rate using the Fridericia formula (QTcF) and the van de Waters formula. […] Five to six dogs (two or three males and three females) were studied with at least 48 h between each test session.
(§4) At the highest dose of 15 mg·kg^−1 p.o., this route provided an exposure (59 ± 25 ng·mL^−1), without any adverse CNS events (i.e. pre‐convulsive signs) in this species, close to the exposure recorded in humans at therapeutic doses. […] Pitolisant serum levels were assessed by LC‐mass spectrometry using a validated analytical method.

in vivo [5] = conditions: both sexes, Beagle, dog, in vivo; for concentration at 1 h: po, 1 h after administration, read-out: total drug exposure (serum level)
Procedure: as §3, §4

α2C‐adrenoceptor = α2C‐adrenoceptor (Homo sapiens, UniProt P18825); experiment: Affinity at α2C-adrenoceptor; type: binding
[6] = cumulative i.v. infusion 1, 3.3 and 10 mg·kg^−1 in successive 20 min steps

Chain of α2C‐adrenoceptor (P18825 whole entry, the tested form may be a part): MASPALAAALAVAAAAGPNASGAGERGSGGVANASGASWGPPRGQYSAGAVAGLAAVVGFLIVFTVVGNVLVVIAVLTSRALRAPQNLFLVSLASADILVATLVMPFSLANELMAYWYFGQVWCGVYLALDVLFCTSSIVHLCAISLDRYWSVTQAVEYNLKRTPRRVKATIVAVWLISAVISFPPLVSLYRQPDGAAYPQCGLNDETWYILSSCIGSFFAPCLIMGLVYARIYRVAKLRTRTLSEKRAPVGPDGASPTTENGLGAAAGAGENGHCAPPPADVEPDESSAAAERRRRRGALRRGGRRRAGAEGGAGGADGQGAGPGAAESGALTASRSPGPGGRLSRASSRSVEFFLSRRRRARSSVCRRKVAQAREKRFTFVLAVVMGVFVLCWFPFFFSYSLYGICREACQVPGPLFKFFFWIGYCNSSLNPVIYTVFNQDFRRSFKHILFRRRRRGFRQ

Cl.Clc1ccc(CCCOCCCN2CCCCC2)cc1 [pitolisant, 1‐{3‐[3‐(4‐chlorophenyl)propoxy]propyl}piperidine, hydrochloride]
concentration at 1 h (in vivo [1]; after 50 μg·kg^−1·min^−1 1 h i.v. infusion): ~140 nM
concentration at 1 h (in vivo [1]; after 150 μg·kg^−1·min^−1 1 h i.v. infusion): ~450 nM
effect on QTc interval [2]: devoid of any effect on QTc interval
pro-arrhythmic effect [2]: lacked any pro‐arrhythmic effect
QTc interval (ms) (mean ± SEM) (anaesthetized rabbits; 1 mg·kg^−1 infused over 1 h, 10 min into infusion): 154 ± 2 ms
QTc interval (ms) (mean ± SEM) (anaesthetized rabbits; 1 mg·kg^−1 infused over 1 h, 20 min into infusion): 156 ± 2 ms
QTc interval (ms) (mean ± SEM) (anaesthetized rabbits; 1 mg·kg^−1 infused over 1 h, 30 min into infusion): 156 ± 2 ms
QTc interval (ms) (mean ± SEM) (anaesthetized rabbits; 1 mg·kg^−1 infused over 1 h, 40 min into infusion): 156 ± 2 ms
QTc interval (ms) (mean ± SEM) (anaesthetized rabbits; 1 mg·kg^−1 infused over 1 h, 50 min into infusion): 157 ± 2 ms
QTc interval (ms) (mean ± SEM) (anaesthetized rabbits; 1 mg·kg^−1 infused over 1 h, 60 min into infusion): 157 ± 3 ms
QTc interval (ms) (mean ± SEM) (anaesthetized rabbits; 1 mg·kg^−1 infused over 1 h, baseline): 152 ± 3 ms
QTc interval (ms) (mean ± SEM) (anaesthetized rabbits; 10 mg·kg^−1 dose range (successively over 20 min at 1, 3.3 and 10 mg·kg^−1), 10 min into infusion): 148 ± 3 ms
QTc interval (ms) (mean ± SEM) (anaesthetized rabbits; 10 mg·kg^−1 dose range (successively over 20 min at 1, 3.3 and 10 mg·kg^−1), 20 min into infusion): 149 ± 2 ms
QTc interval (ms) (mean ± SEM) (anaesthetized rabbits; 10 mg·kg^−1 dose range (successively over 20 min at 1, 3.3 and 10 mg·kg^−1), 30 min into infusion): 151 ± 2 ms
QTc interval (ms) (mean ± SEM) (anaesthetized rabbits; 10 mg·kg^−1 dose range (successively over 20 min at 1, 3.3 and 10 mg·kg^−1), 40 min into infusion): 151 ± 1 ms
QTc interval (ms) (mean ± SEM) (anaesthetized rabbits; 10 mg·kg^−1 dose range (successively over 20 min at 1, 3.3 and 10 mg·kg^−1), 50 min into infusion): 148 ± 4 ms
QTc interval (ms) (mean ± SEM) (anaesthetized rabbits; 10 mg·kg^−1 dose range (successively over 20 min at 1, 3.3 and 10 mg·kg^−1), 60 min into infusion): 147 ± 2 ms
QTc interval (ms) (mean ± SEM) (anaesthetized rabbits; 10 mg·kg^−1 dose range (successively over 20 min at 1, 3.3 and 10 mg·kg^−1), baseline): 144 ± 4 ms
free drug concentration (anaesthetized rabbits; cumulative i.v. infusion 1, 3.3 and 10 mg·kg^−1, from total 13.8 μM): ~ 0.55 μM
change in QTc interval vs. baseline (anaesthetized rabbits; [6]): 2 ± 1%
decrease in heart rate (anaesthetized rabbits; [6]): 17 ± 4%
maximal total drug exposure (anaesthetized rabbits; [6]): 4140 ± 450 ng/mL
total drug concentration (anaesthetized rabbits; [6]): 13.8 ± 1.5 µM
effect on ventricular premature beats, ventricular tachycardia and TdP induced by clofilium (1 mg·kg^−1) (anaesthetized rabbits; pitolisant 10 mg·kg^−1): abolished
change in QTc interval (anaesthetized rabbits; pitolisant single dose 1 mg·kg^−1 i.v. over 60 min): +3 ± 1%
ventricular arrhythmias (anaesthetized rabbits; up to 10 mg·kg^−1 by i.v. slow infusion): never observed
effect on dofetilide-induced increase in APD90 [3]: fully reversed
increase in APD90–20 vs. baseline ([3]; 3 μM): 192 ms
maximal increase in APD90 ([3]; 3 μM): 97 ms
increase in APD90–20 vs. baseline ([3]; 10 μM): 176 ms
effect on APD20 ([3]; 1, 3 or 10 μM): concentration‐dependent effect of decreasing APD20
effect on RMP and APA ([3]; 1, 3 or 10 μM): little effect
fraction unbound (in vitro): ~0.04
free drug concentration ([4]; both, Beagle, in vivo, iv): ~ 0.14 μM
effect on mean arterial blood pressure and heart rate ([4]; 4.5 mg·kg^−1 i.v., for up to 4 h after injection): increases in mean arterial blood pressure and heart rate
effect on QTcF interval ([4]; 4.5 mg·kg^−1 i.v., return to baseline 30 min after injection): decrease in QTcF interval for 20 min
total drug exposure (serum level) ([4]; 15 mg·kg^−1 p.o., 1 h after administration): 59.2 ± 24.6 ng/mL
arrhythmia or other morphological changes in the ECG ([4]; over the test period, 6/6 dogs): No arrhythmia or other morphological changes in the ECG
effect on heart rate, mean arterial blood pressure, QTc interval or any other ECG parameter ([4]; single doses 5, 10 and 15 mg·kg^−1 p.o. or 1.5 mg·kg^−1 i.v., compared to vehicle): no effect
concentration at 5 min (in vivo [5]; iv, 1.5 mg·kg^−1 i.v., 5 min, read-out: total drug concentration): 294 ± 40 ng/mL
concentration at 30 min (in vivo [5]; iv, 1.5 mg·kg^−1 i.v., 30 min, read-out: total drug concentration): 231 ± 36 ng/mL
concentration at 1 h (in vivo [5]; 5 mg·kg^−1 p.o.): 3.5 ± 1 ng/mL
concentration at 1 h (in vivo [5]; 10 mg·kg^−1 p.o.): 15.8 ± 5.8 ng/mL
concentration at 1 h (in vivo [5]; 15 mg·kg^−1 p.o.): 59 ± 25 ng/mL
Ki (α2C‐adrenoceptor): 1200 nM
